The values that follow come from patent US11739101B2, “Bifunctional degraders of hematopoietic progenitor kinase and therapeutic uses thereof” (Nurix Therapeutics, Inc., priority 2020, dated 2023).

Usually Dmax stands for the largest share of the target that was removed. A high value points to deep degradation.

This assay deals with T1, HPK1 (Homo sapiens, UniProt Q92918).
T1 construct: A HiBiT tag was introduced by CRISPR on the N terminus of HPK1 in Jurkat cells; host or cells: Jurkat (ATCC TIB-152), monoclonal CRISPR HiBiT knock-in line
T1 sequence (Q92918 whole entry): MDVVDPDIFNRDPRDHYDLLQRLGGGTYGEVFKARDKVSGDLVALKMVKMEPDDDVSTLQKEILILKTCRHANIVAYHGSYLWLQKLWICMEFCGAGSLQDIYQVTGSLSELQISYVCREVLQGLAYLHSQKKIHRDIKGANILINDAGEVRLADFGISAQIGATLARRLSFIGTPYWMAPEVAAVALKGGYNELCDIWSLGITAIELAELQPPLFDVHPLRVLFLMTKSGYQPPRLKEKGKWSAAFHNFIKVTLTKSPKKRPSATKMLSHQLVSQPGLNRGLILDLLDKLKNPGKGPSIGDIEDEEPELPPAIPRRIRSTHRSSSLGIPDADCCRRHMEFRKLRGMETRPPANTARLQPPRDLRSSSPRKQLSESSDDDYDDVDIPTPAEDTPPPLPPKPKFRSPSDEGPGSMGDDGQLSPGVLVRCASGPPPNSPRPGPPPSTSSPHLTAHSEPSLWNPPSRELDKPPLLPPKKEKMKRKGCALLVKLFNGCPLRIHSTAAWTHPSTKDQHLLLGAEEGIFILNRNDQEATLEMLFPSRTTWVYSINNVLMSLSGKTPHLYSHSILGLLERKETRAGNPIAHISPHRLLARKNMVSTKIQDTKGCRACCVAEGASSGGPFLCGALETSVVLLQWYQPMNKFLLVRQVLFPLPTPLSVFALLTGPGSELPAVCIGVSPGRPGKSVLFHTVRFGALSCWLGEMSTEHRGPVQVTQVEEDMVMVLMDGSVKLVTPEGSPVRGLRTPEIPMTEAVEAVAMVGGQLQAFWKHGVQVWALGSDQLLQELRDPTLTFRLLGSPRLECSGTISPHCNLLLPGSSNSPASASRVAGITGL
Kind of assay: HPK1 Cellular HiBiT Degradation Assay. Format: cell-based. The note with it: HiBiT-tagged HPK1 Jurkat cells, 24 hours, 10 uM to 0.1 nM; Dmax = 100 minus lowest % HPK1 remaining vs DMSO vehicle. As for the experimental part:
HiBiT HPK1 Jurkat cell lines were used to evaluate the total protein levels of HPK1 in a robust human cellular high throughput format. The level of HPK1 remaining following treatment with HPK1 CTMs is reported as Dmax (maximum degradation) achieved at 24 hours when compared to vehicle treated controls. […] These decreases were not a result of cytotoxicity measured by a parallel viability assessment (CTG). See also Table 1.
A HiBiT tag was introduced by CRISPR on the N terminus of HPK1 in Jurkat cells (ATCC® TIB-152) to allow quantitation of HPK1 protein levels in a monoclonal human cell line. Cells were plated at 1×10^6 cells/mL, 30 uL/well (3×10^4 cells/well) in complete RPMI 1640 (10% heat inactivated FBS, 1% L-glutamine) in 384-well assay plates (Corning, cat. no. 3570). HPK1 chimeric targeting molecules (CTMs) were added in an 11-point dilution series (3.16-fold) with a final assay concentration range of 10 uM to 0.1 nM. The parental Jurkat cell line, with no HiBiT insertion, was included in the assay as a background control. Cells treated with a DMSO vehicle control were used to determine the maximum signal defining 100% HPK1 in the cell. Cells were incubated for 24 hours at 37° C./5% CO2. Following incubation, 30 uL of complete Nano-Glo HiBiT Lytic Detection Reagent (Promega cat. no. N3040) was added. Cells were incubated for 10 minutes at room temperature and luminescence was read on an EnVision plate reader (Perkin Elmer, 0.1 sec per well). Parallel plates were assessed for viability using Cell Titer Glo (Promega) and read on an EnVision plate reader to ensure results were not the effect of cytotoxicity. Percent HPK1 remaining per sample was calculated as follows: […]
% HPK1 remaining values were plotted as a function of compound concentration and curves were fit using the Prism (GraphPad) equation “log(inhibitor) vs response−Variable slope (four parameters)”. Dmax values were calculated by identifying the lowest % remaining and subtracting from 100. Dmax values are provided in Table 1, wherein A>65%, 45%≤B≤65% and C<45%.
A general note: The HiBiT peptide binds its large partner to form an active luciferase.
`Cc1cc(F)c(Nc2nc(-c3ccc4c(c3)N([C@H]3C[C@@H](N5CCCCC5)C3)C(=O)C43CCN(C(=O)CN4CCN(c5ccc6c(c5)C(=O)N(C5CCC(=O)NC5=O)C6=O)CC4)CC3)cc3ncn(C(C)C)c23)cc1C(=O)NC(C)C` (mixture of isomers) [Example 23, 5-[(6-{1′-[2-(4-{2-[(3RS)-2,6-dioxopiperidin-3-yl]-1,3-dioxo-2,3-dihydro-1H-isoindol-5-yl}piperazin-1-yl)acetyl]-2-oxo-1-[(1s,3s)-3-(piperidin-1-yl)cyclobutyl]-1,2-dihydrospiro[indole-3,4′-piperidin]-6-yl}-3-(propan-2-yl)-3H-imidazo[4,5-c]pyridin-4-yl)amino]-4-fluoro-2-methyl-N-(propan-2-yl)benzamide] returned a maximal degradation (Dmax) of less than 45%.

In the case of `Cc1cc(F)c(Nc2nc(-c3ccc4c(c3)N([C@H]3C[C@@H](N5CCCCC5)C3)C(=O)C43CCN(C(=O)C4CCN(C(=O)C5CCN(c6cccc7c6C(=O)N(C6CCC(=O)NC6=O)C7=O)CC5)C4)CC3)cc3ncn(C(C)C)c23)cc1C(=O)NC(C)C` (mixture of isomers) [Example 25, 5-[(6-{1′-[1-(1-{2-[(3RS)-2,6-dioxopiperidin-3-yl]-1,3-dioxo-2,3-dihydro-1H-isoindol-4-yl}piperidine-4-carbonyl)pyrrolidine-3-carbonyl]-2-oxo-1-[(1s,3s)-3-(piperidin-1-yl)cyclobutyl]-1,2-dihydrospiro[indole-3,4′-piperidin]-6-yl}-3-(propan-2-yl)-3H-imidazo[4,5-c]pyridin-4-yl)amino]-4-fluoro-2-methyl-N-(propan-2-yl)benzamide], the greatest degradation seen (Dmax) is 45 to 65%.

In turn, `Cc1cc(F)c(Nc2nc(-c3ccc4c(c3)N([C@H]3C[C@@H](N5CCCCC5)C3)C(=O)C43CCN(C(=O)CCCCCCCCCNc4cccc5c4C(=O)N(C4CCC(=O)NC4=O)C5=O)CC3)cc3ncn(C(C)C)c23)cc1C(=O)NC(C)C` (some centres unmarked) [Example 1, 5-((6-(1′-(10-((2-(2,6-dioxopiperidin-3-yl)-1,3-dioxoisoindolin-4-yl)amino)decanoyl)-2-oxo-1-((1s,3s)-3-(piperidin-1-yl)cyclobutyl)spiro[indoline-3,4′-piperidin]-6-yl)-3-isopropyl-3H-imidazo[4,5-c]pyridin-4-yl)amino)-4-fluoro-N-isopropyl-2-methylbenzamide] returned a Dmax of less than 45%.

For `Cc1cc(F)c(Nc2nc(-c3ccc4c(c3)N([C@H]3C[C@@H](N5CCCCC5)C3)C(=O)C43CCN(C(=O)CCOCCOCCOCCOCCNc4cccc5c4C(=O)N(C4CCC(=O)NC4=O)C5=O)CC3)cc3ncn(C(C)C)c23)cc1C(=O)NC(C)C` (some centres unmarked) [Example 2, 5-((6-(1′-(1-((2-(2,6-dioxopiperidin-3-yl)-1,3-dioxoisoindolin-4-yl)amino)-3,6,9,12-tetraoxapentadecan-15-oyl)-2-oxo-1-((1s,3s)-3-(piperidin-1-yl)cyclobutyl)spiro[indoline-3,4′-piperidin]-6-yl)-3-isopropyl-3H-imidazo[4,5-c]pyridin-4-yl)amino)-4-fluoro-N-isopropyl-2-methylbenzamide], the Dmax lay within 45 to 65%.

In turn, `Cc1cc(F)c(Nc2nc(-c3ccc4c(c3)N([C@H]3C[C@@H](N5CCCCC5)C3)C(=O)C43CCN(C(=O)CCCCCCCNc4ccc5c(c4)C(=O)N(C4CCC(=O)NC4=O)C5=O)CC3)cc3ncn(C(C)C)c23)cc1C(=O)NC(C)C` (some centres unmarked) [Example 3, 5-((6-(1′-(8-((2-(2,6-dioxopiperidin-3-yl)-1,3-dioxoisoindolin-5-yl)amino)octanoyl)-2-oxo-1-((1s,3s)-3-(piperidin-1-yl)cyclobutyl)spiro[indoline-3,4′-piperidin]-6-yl)-3-isopropyl-3H-imidazo[4,5-c]pyridin-4-yl)amino)-4-fluoro-N-isopropyl-2-methylbenzamide] returned a maximal degradation (Dmax) of less than 45%.

In turn, `Cc1cc(F)c(Nc2nc(-c3ccc4c(c3)N(C3CC(N5CCCCC5)C3)C(=O)C43CCN(C(=O)CCCCCCCCCNc4ccc5c(c4)C(=O)N(C4CCC(=O)NC4=O)C5=O)CC3)cc3ncn(C(C)C)c23)cc1C(=O)NC(C)C` (centres unmarked) [Example 4, 5-((6-(1′-(10-((2-(2,6-dioxopiperidin-3-yl)-1,3-dioxoisoindolin-5-yl)amino)decanoyl)-2-oxo-1-((1s,3s)-3-(piperidin-1-yl)cyclobutyl)spiro[indoline-3,4′-piperidin]-6-yl)-3-isopropyl-3H-imidazo[4,5-c]pyridin-4-yl)amino)-4-fluoro-N-isopropyl-2-methylbenzamide] displayed a Dmax of less than 45%.

In the case of `Cc1cc(F)c(Nc2nc(-c3ccc4c(c3)N(C3CC(N5CCCCC5)C3)C(=O)C43CCN(C(=O)CCOCCOCCOCCNc4ccc5c(c4)C(=O)N(C4CCC(=O)NC4=O)C5=O)CC3)cc3ncn(C(C)C)c23)cc1C(=O)NC(C)C` (centres unmarked) [Example 5, 5-((6-(1′-(3-(2-(2-(2-((2-(2,6-dioxopiperidin-3-yl)-1,3-dioxoisoindolin-5-yl)amino)ethoxy)ethoxy)ethoxy)propanoyl)-2-oxo-1-((1s,3s)-3-(piperidin-1-yl)cyclobutyl)spiro[indoline-3,4′-piperidin]-6-yl)-3-isopropyl-3H-imidazo[4,5-c]pyridin-4-yl)amino)-4-fluoro-N-isopropyl-2-methylbenzamide], the Dmax is less than 45%.

For the compound `Cc1cc(F)c(Nc2nc(-c3ccc4c(c3)N([C@H]3C[C@@H](N5CCCCC5)C3)C(=O)C43CCN(C(=O)CCCCCCCCCOc4cc(-c5scnc5C)ccc4CNC(=O)[C@@H]4C[C@@H](O)CN4C(=O)[C@@H](NC(=O)C4(F)CC4)C(C)(C)C)CC3)cc3ncn(C(C)C)c23)cc1C(=O)NC(C)C` [Example 6, (2S,4R)—N-(2-((10-(6-(4-((2-fluoro-5-(isopropylcarbamoyl)-4-methylphenyl)amino)-3-isopropyl-3H-imidazo[4,5-c]pyridin-6-yl)-2-oxo-1-((1s,3s)-3-(piperidin-1-yl)cyclobutyl)spiro[indoline-3,4′-piperidin]-1′-yl)-10-oxodecyl)oxy)-4-(4-methylthiazol-5-yl)benzyl)-1-((S)-2-(1-fluorocyclopropane-1-carboxamido)-3,3-dimethylbutanoyl)-4-hydroxypyrrolidine-2-carboxamide], the Dmax was less than 45%.

In turn, `Cc1cc(F)c(Nc2nc(-c3ccc4c(c3)N([C@H]3C[C@@H](N5CCCCC5)C3)C(=O)C43CCN(C(=O)CCCCCC(=O)N[C@H](C(=O)N4C[C@H](O)C[C@H]4C(=O)N[C@@H](C)c4ccc(-c5scnc5C)cc4)C(C)(C)C)CC3)cc3ncn(C(C)C)c23)cc1C(=O)NC(C)C` [Example 7, (2S,4R)-1-((S)-2-(7-(6-(4-((2-fluoro-5-(isopropylcarbamoyl)-4-methylphenyl)amino)-3-isopropyl-3H-imidazo[4,5-c]pyridin-6-yl)-2-oxo-1-((1s,3s)-3-(piperidin-1-yl)cyclobutyl)spiro[indoline-3,4′-piperidin]-1′-yl)-7-oxoheptanamido)-3,3-dimethylbutanoyl)-4-hydroxy-N—((S)-1-(4-(4-methylthiazol-5-yl)phenyl)ethyl)pyrrolidine-2-carboxamide] had a Dmax of more than 65%.

Turning to `Cc1cc(F)c(Nc2nc(-c3ccc4c(c3)N(C3CC(N5CCCCC5)C3)C(=O)C43CCN(C(=O)CCCCCCCCCC(=O)N[C@H](C(=O)N4C[C@H](O)C[C@H]4C(=O)N[C@@H](C)c4ccc(-c5scnc5C)cc4)C(C)(C)C)CC3)cc3ncn(C(C)C)c23)cc1C(=O)NC(C)C` (stereo partly drawn) [Example 8, (2S,4R)-1-((S)-2-(11-(6-(4-((2-fluoro-5-(isopropylcarbamoyl)-4-methylphenyl)amino)-3-isopropyl-3H-imidazo[4,5-c]pyridin-6-yl)-2-oxo-1-((1s,3s)-3-(piperidin-1-yl)cyclobutyl)spiro[indoline-3,4′-piperidin]-1′-yl)-11-oxoundecanamido)-3,3-dimethylbutanoyl)-4-hydroxy-N—((S)-1-(4-(4-methylthiazol-5-yl)phenyl)ethyl)pyrrolidine-2-carboxamide], the “Cellular HPK1 HiBiT: Dmax (%)” value is “A (A>65%)”.

The compound `Cc1cc(F)c(Nc2nc(-c3ccc4c(c3)N([C@H]3C[C@@H](N5CCCCC5)C3)C(=O)C43CCN(C(=O)CCOCCOCCOCCOc4cc(-c5scnc5C)ccc4CNC(=O)[C@H]4C[C@H](O)CN4C(=O)[C@H](NC(=O)C4(F)CC4)C(C)(C)C)CC3)cc3ncn(C(C)C)c23)cc1C(=O)NC(C)C` [Example 9, (2S,4R)—N-(2-(2-(2-(2-(3-(6-(4-((2-fluoro-5-(isopropylcarbamoyl)-4-methylphenyl)amino)-3-isopropyl-3H-imidazo[4,5-c]pyridin-6-yl)-2-oxo-1-((1s,3s)-3-(piperidin-1-yl)cyclobutyl)spiro[indoline-3,4′-piperidin]-1′-yl)-3-oxopropoxy)ethoxy)ethoxy)ethoxy)-4-(4-methylthiazol-5-yl)benzyl)-1-((S)-2-(1-Fluorocyclopropane-1-carboxamido)-3,3-dimethylbutanoyl)-4-hydroxypyrrolidine-2-carboxamide] showed a Dmax of less than 45%.
